{
  "source": "ChEMBL document CHEMBL1817576",
  "about": "“Specific inhibitions of annonaceous acetogenins on class II 3-hydroxy-3-methylglutaryl coenzyme A reductase from Streptococcus pneumoniae” (Bioorg Med Chem, 2011)",
  "key": {"Mesocricetus auratus [1]": {"species": "Mesocricetus auratus", "experiment": "Activity of syrian hamsters HMGR class I expressed in Escherichia coli BL21(DE3) using HMG-CoA substrate after 1 min by microplate reader"}, "Haloferax volcanii [2]": {"test_system": "Haloferax volcanii", "experiment": "Activity of Haloferax volcanii HMGR class I expressed in Escherichia coli BL21(DE3) using HMG-CoA substrate after 1 min by microplate reader"}, "Streptococcus pneumoniae [3]": {"test_system": "Streptococcus pneumoniae", "experiment": "Activity of Streptococcus pneumoniae recombinant HMGR class II expressed in Escherichia coli BL21(DE3) using HMG-CoA substrate after 1 min by microplate reader"}, "Staphylococcus aureus [4]": {"test_system": "Staphylococcus aureus", "experiment": "Activity of Staphylococcus aureus HMGR class II expressed in Escherichia coli BL21(DE3) using HMG-CoA substrate after 1 min by microplate reader"}, "Listeria monocytogenes [5]": {"test_system": "Listeria monocytogenes", "experiment": "Activity of Listeria monocytogenes HMGR class II expressed in Escherichia coli BL21(DE3) using HMG-CoA substrate after 1 min by microplate reader"}, "[6]": {"experiment": "Inhibition of Streptococcus pneumoniae recombinant HMGR class II expressed in Escherichia coli using HMG-CoA as substrate"}, "Listeria monocytogenes [7]": {"test_system": "Listeria monocytogenes", "experiment": "Ratio of Kcat to Km for Listeria monocytogenes HMGR class II using NADPH substrate"}, "Mesocricetus auratus [8]": {"species": "Mesocricetus auratus", "experiment": "Activity of syrian hamsters HMGR class I expressed in Escherichia coli BL21(DE3) using NADPH as substrate after 5 min by microplate reader"}, "Streptococcus pneumoniae [9]": {"test_system": "Streptococcus pneumoniae", "experiment": "Ratio of Kcat to Km for Streptococcus pneumoniae HMGR class II using NADPH substrate"}, "Listeria monocytogenes [10]": {"test_system": "Listeria monocytogenes", "experiment": "Activity of Listeria monocytogenes HMGR class II expressed in Escherichia coli BL21(DE3) using NADPH as substrate after 5 min by microplate reader"}, "Haloferax volcanii [11]": {"test_system": "Haloferax volcanii", "experiment": "Activity of Haloferax volcanii HMGR class I expressed in Escherichia coli BL21(DE3) using NADPH as substrate after 5 min by microplate reader"}, "Streptococcus pneumoniae [12]": {"test_system": "Streptococcus pneumoniae", "experiment": "Activity of Streptococcus pneumoniae recombinant HMGR class II expressed in Escherichia coli BL21(DE3) using NADPH as substrate after 5 min by microplate reader"}, "Staphylococcus aureus [13]": {"test_system": "Staphylococcus aureus", "experiment": "Activity of Staphylococcus aureus HMGR class II expressed in Escherichia coli BL21(DE3) using NADPH as substrate after 5 min by microplate reader"}, "[14]": {"experiment": "Inhibition of Archaeoglobus fulgidus HMGCR 1 recombinant HMGR class II expressed in Escherichia coli using HMG-CoA as substrate"}, "Streptococcus pneumoniae [15]": {"test_system": "Streptococcus pneumoniae", "experiment": "Ratio Ki for lovastatin to compound for recombinant Streptococcus pneumoniae HMGR class II"}, "[16]": {"experiment": "Inhibition of Pseudomonas mevalonii recombinant HMGR class II expressed in Escherichia coli using HMG-CoA as substrate", "parameters": "species or system Pseudomonas sp. 'mevalonii'"}, "[17]": {"experiment": "Inhibition of Staphylococcus aureus recombinant HMGR class II expressed in Escherichia coli using HMG-CoA as substrate"}, "[18]": {"experiment": "Inhibition of Listeria monocytogenes recombinant HMGR class II expressed in Escherichia coli using HMG-CoA as substrate"}},
  "data": [
    {"compound": "CC(C)(CO[P@@](=O)(O)O[P@@](=O)(O)OC[C@H]1O[C@@H](n2cnc3c(N)ncnc32)[C@H](O)[C@@H]1OP(=O)(O)O)[C@@H](O)C(=O)NCCC(=O)NCCSC(=O)C[C@@](C)(O)CC(=O)O", "values": [
      {"measurement": "Km", "setting": "Mesocricetus auratus [1]", "value": 20, "unit": "µM"},
      {"measurement": "Km", "setting": "Haloferax volcanii [2]", "value": 60, "unit": "µM"},
      {"measurement": "Km", "setting": "Streptococcus pneumoniae [3]", "value": 75.9, "unit": "µM"},
      {"measurement": "Km", "setting": "Staphylococcus aureus [4]", "value": 40, "unit": "µM"},
      {"measurement": "Km", "setting": "Listeria monocytogenes [5]", "value": 19.8, "unit": "µM"}
    ]},
    {"compound": "CCCCC[C@H](O)CCCC[C@H](O)[C@H]1CC[C@H]([C@H]2CC[C@H]([C@H](O)CCCCCCCCCCCCC3=C[C@H](C)OC3=O)O2)O1", "note": "[MOTRILIN]", "values": [
      {"measurement": "Ki", "setting": "[6]", "value": 20.5, "unit": "µM"}
    ]},
    {"compound": "NC(=O)c1ccc[n+]([C@@H]2O[C@H](COP(=O)([O-])OP(=O)(O)OC[C@H]3O[C@@H](n4cnc5c(N)ncnc54)[C@H](OP(=O)(O)O)[C@@H]3O)[C@@H](O)[C@H]2O)c1", "values": [
      {"measurement": "kcat/Km", "setting": "Listeria monocytogenes [7]", "value": 186000, "unit": "M⁻¹ s⁻¹"},
      {"measurement": "Km", "setting": "Mesocricetus auratus [8]", "value": 80, "unit": "µM"},
      {"measurement": "kcat/Km", "setting": "Streptococcus pneumoniae [9]", "value": 322000, "unit": "M⁻¹ s⁻¹"},
      {"measurement": "Km", "setting": "Listeria monocytogenes [10]", "value": 12.9, "unit": "µM"},
      {"measurement": "kcat", "setting": "Listeria monocytogenes [10]", "value": 22.6, "unit": "s⁻¹"},
      {"measurement": "Km", "setting": "Haloferax volcanii [11]", "value": 66, "unit": "µM"},
      {"measurement": "Km", "setting": "Streptococcus pneumoniae [12]", "value": 38.9, "unit": "µM"},
      {"measurement": "kcat", "setting": "Streptococcus pneumoniae [12]", "value": 11.9, "unit": "s⁻¹"},
      {"measurement": "Km", "setting": "Staphylococcus aureus [13]", "value": 70, "unit": "µM"}
    ]},
    {"compound": "CC[C@H](C)C(=O)O[C@H]1C[C@@H](C)C=C2C=C[C@H](C)[C@H](CC[C@@H]3C[C@@H](O)CC(=O)O3)[C@H]21", "note": "[LOVASTATIN]", "values": [
      {"measurement": "Ki", "setting": "[6]", "value": 116, "unit": "µM"},
      {"measurement": "Ki", "setting": "[14]", "value": 530, "unit": "µM"},
      {"measurement": "Ratio Ki", "setting": "Streptococcus pneumoniae [15]", "value": 20},
      {"measurement": "Ki", "setting": "[16]", "value": 180, "unit": "µM"},
      {"measurement": "Ki", "setting": "[17]", "value": 320, "unit": "µM"},
      {"measurement": "Ki", "setting": "[18]", "value": 130, "unit": "µM"}
    ]},
    {"compound": "CCCCCCCCCC[C@H](O)[C@H]1CC[C@H]([C@H](O)CC[C@H](O)[C@@H]2CC[C@@H](CCCCCCC[C@@H](O)CC3=C[C@H](C)OC3=O)O2)O1", "note": "[BULLATALICIN]", "values": [
      {"measurement": "Ki", "setting": "[6]", "value": 17.7, "unit": "µM"}
    ]},
    {"compound": "CCCCCCCCCCC(O)C1CCC(C2CCC(C(O)CCCCCCCC[C@H](O)CC3=C[C@@H](C)OC3=O)O2)O1", "note": "(some centres undefined) [ASIMICIN]", "values": [
      {"measurement": "Ki", "setting": "[6]", "value": 12.2, "unit": "µM"}
    ]},
    {"compound": "CCCCCC[C@H](O)CCC[C@H](O)[C@H]1CC[C@H]([C@H](O)CC[C@H](O)[C@@H]2CC[C@@H](CCCCCCCCCC3=C[C@H](C)OC3=O)O2)O1", "note": "[SQUAMOSTATIN A]", "values": [
      {"measurement": "Ki", "setting": "[6]", "value": 6.45, "unit": "µM"}
    ]}
  ]
}
